This passage reports AC50 results from ChEMBL document CHEMBL5291721, “A preclinical secondary pharmacology resource illuminates target-adverse drug reaction associations of marketed drugs” (Nat Commun, 2023).

The term AC50 denotes the concentration giving half of the maximal activity seen.

The target in experiment [1] is Gamma-aminobutyric acid receptor subunit alpha-1/alpha-2/beta-2/gamma-2 (Homo sapiens, UniProt P14867+P18507+P47869+P47870). It counts as protein-complex assay.
Experiment [2] has as its target Histamine H1 receptor (Homo sapiens, UniProt P35367).
For experiment [3], the target named is Sodium-dependent noradrenaline transporter (Homo sapiens, UniProt P23975).
Chain of Sodium-dependent noradrenaline transporter (P23975 whole entry): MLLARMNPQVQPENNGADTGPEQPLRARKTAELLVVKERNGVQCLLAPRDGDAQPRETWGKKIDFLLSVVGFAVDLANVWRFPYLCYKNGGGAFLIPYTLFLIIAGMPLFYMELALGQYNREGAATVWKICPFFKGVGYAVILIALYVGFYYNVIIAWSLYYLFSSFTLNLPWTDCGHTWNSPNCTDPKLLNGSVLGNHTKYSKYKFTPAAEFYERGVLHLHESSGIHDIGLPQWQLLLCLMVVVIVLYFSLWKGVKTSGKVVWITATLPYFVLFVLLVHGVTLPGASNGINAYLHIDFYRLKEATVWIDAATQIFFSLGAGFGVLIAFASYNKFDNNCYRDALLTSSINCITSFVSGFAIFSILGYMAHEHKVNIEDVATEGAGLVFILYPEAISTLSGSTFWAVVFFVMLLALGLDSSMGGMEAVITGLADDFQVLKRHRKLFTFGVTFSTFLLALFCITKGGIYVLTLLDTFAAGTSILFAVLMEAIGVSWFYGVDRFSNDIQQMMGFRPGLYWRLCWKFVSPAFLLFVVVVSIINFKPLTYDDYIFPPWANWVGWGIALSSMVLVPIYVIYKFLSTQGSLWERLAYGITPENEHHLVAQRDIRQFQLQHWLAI
The target in experiment [4] is T1, Amine oxidase [flavin-containing] A (Homo sapiens, UniProt P21397).
T1 sequence (P21397 whole entry): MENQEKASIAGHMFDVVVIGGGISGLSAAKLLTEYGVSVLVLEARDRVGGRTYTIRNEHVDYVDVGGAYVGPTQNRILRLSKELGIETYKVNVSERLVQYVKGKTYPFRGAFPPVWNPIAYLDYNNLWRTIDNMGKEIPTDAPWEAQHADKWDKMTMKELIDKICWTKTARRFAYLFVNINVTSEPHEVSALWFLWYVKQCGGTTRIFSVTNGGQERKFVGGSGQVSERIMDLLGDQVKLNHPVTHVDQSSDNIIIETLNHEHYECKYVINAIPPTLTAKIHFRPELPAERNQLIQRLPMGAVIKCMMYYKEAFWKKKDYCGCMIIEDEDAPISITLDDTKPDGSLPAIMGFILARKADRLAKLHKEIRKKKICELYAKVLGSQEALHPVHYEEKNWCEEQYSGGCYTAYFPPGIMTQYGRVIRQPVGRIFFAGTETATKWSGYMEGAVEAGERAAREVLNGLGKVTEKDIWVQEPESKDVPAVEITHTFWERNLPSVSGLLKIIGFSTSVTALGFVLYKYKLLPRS
It counts as functional.

The target of experiment [5] is D(3) dopamine receptor (Homo sapiens, UniProt P35462).
Chain of D(3) dopamine receptor (P35462 whole entry): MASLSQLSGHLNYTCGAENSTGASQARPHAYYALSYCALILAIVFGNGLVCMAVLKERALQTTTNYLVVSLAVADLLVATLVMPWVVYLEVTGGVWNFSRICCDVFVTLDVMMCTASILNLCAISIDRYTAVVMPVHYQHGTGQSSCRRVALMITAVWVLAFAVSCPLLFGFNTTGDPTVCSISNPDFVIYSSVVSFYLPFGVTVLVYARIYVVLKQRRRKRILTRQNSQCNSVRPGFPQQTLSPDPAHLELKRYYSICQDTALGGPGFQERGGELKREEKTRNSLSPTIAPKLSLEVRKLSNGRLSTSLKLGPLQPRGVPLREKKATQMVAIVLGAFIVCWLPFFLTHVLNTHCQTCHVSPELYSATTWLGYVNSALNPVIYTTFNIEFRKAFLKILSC
Experiment [6] deals with T2, Alpha-2A adrenergic receptor (Homo sapiens, UniProt P08913).
T2 sequence (P08913 whole entry): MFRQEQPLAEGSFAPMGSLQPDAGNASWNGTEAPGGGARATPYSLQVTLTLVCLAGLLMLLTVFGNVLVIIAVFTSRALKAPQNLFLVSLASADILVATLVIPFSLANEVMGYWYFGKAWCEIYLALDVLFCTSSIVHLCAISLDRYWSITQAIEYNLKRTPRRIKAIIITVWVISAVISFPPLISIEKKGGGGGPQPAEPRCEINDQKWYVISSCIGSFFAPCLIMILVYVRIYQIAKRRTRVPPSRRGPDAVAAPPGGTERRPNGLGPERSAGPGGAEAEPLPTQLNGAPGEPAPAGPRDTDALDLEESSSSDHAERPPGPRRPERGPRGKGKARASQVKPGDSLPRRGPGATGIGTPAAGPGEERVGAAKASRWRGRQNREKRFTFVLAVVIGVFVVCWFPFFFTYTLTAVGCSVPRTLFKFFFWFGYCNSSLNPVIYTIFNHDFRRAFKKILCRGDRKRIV
It counts as functional, cell-based.

The target in experiment [7] is T3, Gastrin/cholecystokinin type B receptor (Homo sapiens, UniProt P32239).
T3 sequence (P32239 whole entry): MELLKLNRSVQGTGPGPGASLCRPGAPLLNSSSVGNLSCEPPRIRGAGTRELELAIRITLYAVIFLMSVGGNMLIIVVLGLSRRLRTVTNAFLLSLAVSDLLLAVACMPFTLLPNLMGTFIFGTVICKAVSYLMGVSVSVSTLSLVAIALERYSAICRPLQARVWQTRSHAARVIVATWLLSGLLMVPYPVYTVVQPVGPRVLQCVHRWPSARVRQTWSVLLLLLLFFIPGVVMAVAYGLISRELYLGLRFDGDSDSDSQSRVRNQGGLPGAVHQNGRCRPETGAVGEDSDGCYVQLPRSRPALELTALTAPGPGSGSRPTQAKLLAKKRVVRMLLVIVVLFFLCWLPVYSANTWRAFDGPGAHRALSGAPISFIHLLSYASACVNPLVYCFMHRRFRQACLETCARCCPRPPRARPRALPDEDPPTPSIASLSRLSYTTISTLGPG

Experiment [8] has as its target Muscarinic acetylcholine receptor M3 (Homo sapiens, UniProt P20309).
Experiment [9] has as its target Cannabinoid receptor 1 (Homo sapiens, UniProt P21554). It counts as functional, cell-based.
The target in experiment [10] is T4, 5-hydroxytryptamine receptor 2C (Homo sapiens, UniProt P28335).
T4 sequence (P28335 whole entry): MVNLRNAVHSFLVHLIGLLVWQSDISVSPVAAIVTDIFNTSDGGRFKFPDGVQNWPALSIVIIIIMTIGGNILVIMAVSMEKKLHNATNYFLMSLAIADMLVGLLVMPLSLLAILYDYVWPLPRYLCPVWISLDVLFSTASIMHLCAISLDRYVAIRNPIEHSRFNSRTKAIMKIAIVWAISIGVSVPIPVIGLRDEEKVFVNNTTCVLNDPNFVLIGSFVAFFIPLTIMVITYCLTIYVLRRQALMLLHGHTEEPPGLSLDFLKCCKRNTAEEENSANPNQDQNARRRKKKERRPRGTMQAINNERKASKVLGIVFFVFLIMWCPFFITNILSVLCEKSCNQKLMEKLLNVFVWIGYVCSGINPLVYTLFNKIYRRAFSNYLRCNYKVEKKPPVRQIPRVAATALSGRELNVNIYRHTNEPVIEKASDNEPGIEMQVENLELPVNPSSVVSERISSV

The target of experiment [11] is Melanocortin receptor 4 (Homo sapiens, UniProt P32245).
Experiment [12] concerns the target Histamine H3 receptor (Homo sapiens, UniProt Q9Y5N1).
Note: assay procedure not described here.

Chain of Gamma-aminobutyric acid receptor subunit alpha-1/alpha-2/beta-2/gamma-2 (P14867 whole entry): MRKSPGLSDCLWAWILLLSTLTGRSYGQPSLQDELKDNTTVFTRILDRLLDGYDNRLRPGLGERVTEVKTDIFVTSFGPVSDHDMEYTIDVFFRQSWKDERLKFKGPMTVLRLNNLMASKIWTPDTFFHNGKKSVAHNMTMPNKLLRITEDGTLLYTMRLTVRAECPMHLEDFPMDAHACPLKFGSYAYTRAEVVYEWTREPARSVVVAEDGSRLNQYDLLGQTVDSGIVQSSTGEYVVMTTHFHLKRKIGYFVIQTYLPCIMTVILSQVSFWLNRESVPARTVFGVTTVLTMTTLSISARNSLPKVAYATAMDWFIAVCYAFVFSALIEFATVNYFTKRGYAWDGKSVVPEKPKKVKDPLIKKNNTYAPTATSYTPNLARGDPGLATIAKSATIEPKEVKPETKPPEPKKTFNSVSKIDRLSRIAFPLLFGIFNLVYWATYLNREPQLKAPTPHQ
Chain of Gamma-aminobutyric acid receptor subunit alpha-1/alpha-2/beta-2/gamma-2 (P47870 whole entry): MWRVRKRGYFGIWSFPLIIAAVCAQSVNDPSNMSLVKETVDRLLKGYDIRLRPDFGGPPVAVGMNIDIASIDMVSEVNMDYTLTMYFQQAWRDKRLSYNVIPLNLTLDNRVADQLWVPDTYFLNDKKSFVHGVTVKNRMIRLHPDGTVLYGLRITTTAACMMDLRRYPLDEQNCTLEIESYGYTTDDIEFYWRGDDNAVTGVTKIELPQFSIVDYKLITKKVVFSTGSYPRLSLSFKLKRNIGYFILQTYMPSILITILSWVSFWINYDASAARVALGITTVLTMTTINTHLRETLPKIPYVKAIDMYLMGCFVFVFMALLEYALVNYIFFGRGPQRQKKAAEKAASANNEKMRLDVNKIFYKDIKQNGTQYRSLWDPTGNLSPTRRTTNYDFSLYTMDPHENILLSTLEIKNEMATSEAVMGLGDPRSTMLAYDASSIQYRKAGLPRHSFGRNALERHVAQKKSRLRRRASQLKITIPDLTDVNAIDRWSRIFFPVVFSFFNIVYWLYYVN
Chain of Gamma-aminobutyric acid receptor subunit alpha-1/alpha-2/beta-2/gamma-2 (P18507 whole entry): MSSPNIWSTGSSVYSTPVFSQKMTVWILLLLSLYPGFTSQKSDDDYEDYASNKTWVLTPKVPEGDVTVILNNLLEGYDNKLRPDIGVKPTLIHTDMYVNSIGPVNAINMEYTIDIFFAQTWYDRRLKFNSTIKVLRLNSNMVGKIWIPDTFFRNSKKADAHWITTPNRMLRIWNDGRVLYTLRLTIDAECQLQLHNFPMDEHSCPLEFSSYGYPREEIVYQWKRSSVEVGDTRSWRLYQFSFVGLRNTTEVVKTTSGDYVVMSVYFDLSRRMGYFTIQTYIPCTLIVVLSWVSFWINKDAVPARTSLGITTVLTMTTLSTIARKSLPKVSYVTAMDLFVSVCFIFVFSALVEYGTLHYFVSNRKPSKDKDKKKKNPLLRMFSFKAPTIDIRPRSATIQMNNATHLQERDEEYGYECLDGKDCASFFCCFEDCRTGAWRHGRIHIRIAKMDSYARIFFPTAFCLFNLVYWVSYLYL
Chain of Gamma-aminobutyric acid receptor subunit alpha-1/alpha-2/beta-2/gamma-2 (P47869 whole entry): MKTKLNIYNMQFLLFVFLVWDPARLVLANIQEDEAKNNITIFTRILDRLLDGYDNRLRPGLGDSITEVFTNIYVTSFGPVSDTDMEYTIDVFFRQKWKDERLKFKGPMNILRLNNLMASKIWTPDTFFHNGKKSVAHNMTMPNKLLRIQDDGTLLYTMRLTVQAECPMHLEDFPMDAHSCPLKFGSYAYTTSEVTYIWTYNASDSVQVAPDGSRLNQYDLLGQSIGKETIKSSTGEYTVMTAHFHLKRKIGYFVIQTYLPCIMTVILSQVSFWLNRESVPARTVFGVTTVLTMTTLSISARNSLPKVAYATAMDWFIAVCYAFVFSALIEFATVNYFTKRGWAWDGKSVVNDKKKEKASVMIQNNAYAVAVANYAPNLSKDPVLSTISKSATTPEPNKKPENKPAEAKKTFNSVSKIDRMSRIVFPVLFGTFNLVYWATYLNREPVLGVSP
Chain of Histamine H1 receptor (P35367 whole entry): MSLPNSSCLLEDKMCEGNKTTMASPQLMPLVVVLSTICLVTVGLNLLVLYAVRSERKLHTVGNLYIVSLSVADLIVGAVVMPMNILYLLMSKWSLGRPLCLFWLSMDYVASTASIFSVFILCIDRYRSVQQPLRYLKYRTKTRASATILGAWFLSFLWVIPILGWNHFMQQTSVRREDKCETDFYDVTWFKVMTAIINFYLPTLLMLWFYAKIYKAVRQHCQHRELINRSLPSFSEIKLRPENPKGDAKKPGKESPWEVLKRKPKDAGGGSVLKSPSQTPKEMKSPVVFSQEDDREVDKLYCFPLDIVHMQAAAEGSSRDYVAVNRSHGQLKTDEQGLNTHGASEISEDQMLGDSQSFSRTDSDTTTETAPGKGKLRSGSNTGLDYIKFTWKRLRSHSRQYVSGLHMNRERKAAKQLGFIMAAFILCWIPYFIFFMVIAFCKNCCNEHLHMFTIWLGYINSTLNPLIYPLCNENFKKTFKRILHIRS
Chain of Muscarinic acetylcholine receptor M3 (P20309 whole entry): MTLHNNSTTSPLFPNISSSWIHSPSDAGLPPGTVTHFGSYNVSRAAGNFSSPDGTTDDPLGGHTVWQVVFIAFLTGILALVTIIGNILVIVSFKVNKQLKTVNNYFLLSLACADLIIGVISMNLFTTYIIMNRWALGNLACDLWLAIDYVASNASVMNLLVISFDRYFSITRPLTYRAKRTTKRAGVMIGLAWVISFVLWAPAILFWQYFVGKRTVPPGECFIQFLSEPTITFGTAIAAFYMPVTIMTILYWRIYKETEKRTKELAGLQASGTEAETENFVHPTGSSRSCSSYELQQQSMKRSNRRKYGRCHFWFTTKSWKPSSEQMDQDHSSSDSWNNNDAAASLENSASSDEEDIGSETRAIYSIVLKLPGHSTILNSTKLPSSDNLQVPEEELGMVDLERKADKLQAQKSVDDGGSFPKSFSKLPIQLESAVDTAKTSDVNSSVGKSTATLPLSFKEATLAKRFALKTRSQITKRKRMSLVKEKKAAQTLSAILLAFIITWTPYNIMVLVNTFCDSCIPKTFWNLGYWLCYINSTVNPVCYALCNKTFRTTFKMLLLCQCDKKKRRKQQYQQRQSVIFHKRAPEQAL
Chain of Histamine H3 receptor (Q9Y5N1 whole entry): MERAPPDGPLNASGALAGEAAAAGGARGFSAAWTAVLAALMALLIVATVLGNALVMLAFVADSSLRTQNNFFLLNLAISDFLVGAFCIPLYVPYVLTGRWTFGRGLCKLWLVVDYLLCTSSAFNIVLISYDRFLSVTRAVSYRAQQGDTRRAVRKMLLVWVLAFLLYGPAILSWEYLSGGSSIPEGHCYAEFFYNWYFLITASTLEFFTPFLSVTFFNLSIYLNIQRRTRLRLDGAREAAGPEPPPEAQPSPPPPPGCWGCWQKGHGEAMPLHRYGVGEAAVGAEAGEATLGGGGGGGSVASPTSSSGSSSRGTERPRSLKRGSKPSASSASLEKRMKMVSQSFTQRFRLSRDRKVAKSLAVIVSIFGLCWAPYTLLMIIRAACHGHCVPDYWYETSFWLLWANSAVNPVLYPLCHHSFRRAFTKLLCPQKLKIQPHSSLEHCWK
Chain of Cannabinoid receptor 1 (P21554 whole entry): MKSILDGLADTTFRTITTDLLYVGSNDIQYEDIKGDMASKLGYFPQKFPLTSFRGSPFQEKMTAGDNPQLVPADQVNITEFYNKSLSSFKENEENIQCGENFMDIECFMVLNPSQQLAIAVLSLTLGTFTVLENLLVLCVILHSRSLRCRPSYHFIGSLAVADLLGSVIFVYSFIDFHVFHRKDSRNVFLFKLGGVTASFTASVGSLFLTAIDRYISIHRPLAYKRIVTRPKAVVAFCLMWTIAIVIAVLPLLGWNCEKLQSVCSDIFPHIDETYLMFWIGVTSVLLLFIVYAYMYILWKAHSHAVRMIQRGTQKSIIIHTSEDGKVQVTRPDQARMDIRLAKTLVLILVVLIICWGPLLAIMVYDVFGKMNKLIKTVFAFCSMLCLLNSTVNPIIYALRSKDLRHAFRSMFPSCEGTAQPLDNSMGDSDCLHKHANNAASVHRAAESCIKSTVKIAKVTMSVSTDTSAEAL

`CS(=O)(=O)Nc1cc2occ(NC=O)c(=O)c2cc1Oc1ccccc1` [IGURATIMOD]: the AC50 is above 30 µM in experiment [1]; above 30 µM in experiment [2]; above 30 µM in experiment [3]; above 30 µM in experiment [4]; above 30000 nM in experiment [5].

For `O=C(O)c1cccc(-c2noc(-c3ccccc3F)n2)c1`, the AC50 in experiment [1] is above 30 µM; in experiment [2], above 10 µM; in [3] it was above 30 µM; in experiment [4], 5.3 µM.

For the compound `C[C@@H]1O[C@@H](OC[C@H]2O[C@@H](Oc3c(-c4ccc(OCCO)c(OCCO)c4)oc4cc(OCCO)cc(O)c4c3=O)[C@H](O)[C@@H](O)[C@@H]2O)[C@H](O)[C@H](O)[C@H]1O` [TROXERUTIN], the AC50 in experiment [1] was above 30 µM.

Turning to `Oc1cccc2cccnc12` [OXYQUINOLINE], in [1], the half-maximal activity concentration (AC50) is above 30 µM.

The compound `C[C@@H]1C[C@H]2[C@@H]3C[C@H](F)C4=CC(=O)C=C[C@]4(C)[C@@]3(F)[C@@H](O)C[C@]2(C)[C@@]1(O)C(=O)COC(=O)C(C)(C)C` [FLUMETHASONE PIVALATE] came in with an AC50 in [1] above 30 µM.

Take `CCCC1C(=O)N2C(N(C)C)=Nc3ccc(C)cc3N2C1=O` (stereo not drawn) [APAZONE]: the concentration at half-maximal activity (AC50) in [1] was above 30 µM.

Compound `CC[C@@H]1/C=C(\C)C[C@H](C)C[C@H](OC)[C@H]2O[C@@](O)(C(=O)C(=O)N3CCCC[C@H]3C(=O)O[C@H](/C(C)=C/[C@@H]3CC[C@H](Cl)[C@H](OC)C3)[C@H](C)[C@@H](O)CC1=O)[C@H](C)C[C@@H]2OC` [PIMECROLIMUS] returned an AC50 in experiment [1] above 10 µM.

As for `CC(C(=O)O)c1ccc2c(c1)Cc1cccnc1O2` (stereo not drawn) [PRANOPROFEN], the concentration at half-maximal activity (AC50) in [1] is above 30 µM.

For `O=C(Nc1ccccc1)OCC(CN1CCCCC1)OC(=O)Nc1ccccc1` (stereo not drawn) [DIPERODON], the concentration at half-maximal activity (AC50) in experiment [6] was above 10 µM; in [7], above 30 µM; in experiment [8], above 10 µM; in experiment [9] it was above 30 µM; in experiment [1], above 30 µM; in experiment [2] it was above 10 µM. Moreover, the AC50 in experiment [10] was above 10 µM; in [11], above 30 µM; in experiment [3], 1.1 µM; in experiment [4], above 10 µM; in [5] it was 1300 nM; in experiment [12] it was above 10 µM.

For the compound `CN1CCN(C(c2ccccc2)c2ccccc2)CC1` [CYCLIZINE], in experiment [1], the AC50 is above 30 µM.

`Oc1c(I)cc(I)c2cccnc12` [IODOQUINOL] had an AC50 in experiment [1] above 30 µM.

In turn, `CC/C=C\C/C=C\C/C=C\C/C=C\C/C=C\CCCC(=O)O` [ICOSAPENT] came in with an AC50 in [1] above 30 µM.

Turning to `Cc1c(O)cccc1C(=O)N[C@@H](CSc1ccccc1)[C@H](O)CN1C[C@H]2CCCC[C@H]2C[C@H]1C(=O)NC(C)(C)C`, the AC50 in experiment [1] was above 30 µM.

As for `CC(C)Cc1ccc(C(C)C(=O)NO)cc1` (stereo not drawn) [IBUPROXAM], the AC50 in experiment [1] is above 30 µM.

In turn, `Nc1nc2c(ncn2CCC(CO)CO)c(=O)[nH]1` [PENCICLOVIR] gave an AC50 in experiment [1] above 30 µM.
